Here are results for one compound from article PMC12143348, “Rapid and reversible fluorescent probe enables repeated snapshot imaging of AMPA receptors during synaptic plasticity” (Science Advances, 2025).

Structures are written as SMILES. “Also recorded” adds a separate entry of the source. Where two headings read alike, the source gives them in different places.

Data set [1] in a line: pH-dependency of fluorescent intensity in GTA buffer (spectrofluorophotometer). To be noted: 2 µM probe in GTA buffer pH 4–10, normalized to pH 10. The format is physicochemical. As for the experimental part: Evaluation of the affinity of PFQX-amine
HEK293T cells were co-transfected with GluA2 flip(Q)-3’UTR and mCherry-F as a transfection marker. After washing the cells with HBS, 30 nM PFQX1(AF488) was added to the dish. Then, PFQX-amine in HBS was step-wisely added to the dish to a final […]
performed with confocal microscopy. Cell surface fluorescent intensity was quantified from the line scans of transfection marker positive cells calculated by ZEN blue software and calculated with subtraction of background. The membrane intensity was fitted with KaleidaGraph to calculate the IC50 value using the following equation:a + (b-a)/(1+(x/c)^d). The Ki value was calculated using the Cheng-Prusoff equation: Ki = IC50/(1+[S]/K d). In the equation, [S] and Kd were the concentration and dissociation constant of PFQX1(AF488), respectively. pH-dependency of fluorescent intensity
Fluorescent intensity was determined by spectrofluorophotometer RF-6000 (Shimadzu). […]
glutaric acid, 0.1 M Tris, 0.1 M 2-amino-2-methyl-1,3-propanediol) to a final concentration of 2 µM. pH value of GTA buffer was adjusted to 4, 5, 6, 7, 8, 9, and 10.
Fluorescent intensity was normalized by the intensity at pH 10.
For the evaluation in cells, HEK293T cells expressing GluA2 or primary cultured hippocampal neurons were used. […]

In the next data set the test system is native AMPARs. Nature of the data set: Concentration-dependent binding of PFQX1(AF488) to AMPARs in primary cultured hippocampal neurons. Set-up: species or system mouse. To be noted: for Kd: n = 3. Here is the method:
We modified the Banker’s culture method of hippocampal neurons ([59]). Glass-bottom dishes (14 mm φ, Matsunami) were coated with poly-D-lysine (Sigma-Aldrich) and washed three times with sterile dH2O. Hippocampi from 16-day-old ICR mouse embryos were aseptically dissected and digested with 0.25% (w/v) trypsin (Nacalai Tesque) for 20 min at 37°C. The cells were resuspended in Neurobasal Plus medium supplemented with 10% FBS, 1 mM GlutaMAX I (Invitrogen), penicillin (100 U/ml), and streptomycin (100 μg/ml) and filtered by Cell Strainer (100 μm, Falcon) followed by centrifugation at 1000 rpm for 5 min. The cells were resuspended in Neurobasal Plus medium supplemented with 2% of B-27 Plus Supplement, 1 mM GlutaMAX I (Invitrogen), penicillin (100 U/ml), and streptomycin (100 μg/ml) and plated at a density of 2 × 10^4 cells on glass-bottom dishes. Precultured cortical astrocytes on glass coverslips (13 mm φ) were transferred to the dishes so that astrocytes were faced to neurons. The cultures were maintained at 37°C in a 95% air and 5% CO2 humidified incubator. The culture medium was replaced every 7 days, and the neurons were used at 16 to 18 days in vitro (DIV).
Calcein Red AM (50 nM; AAT Bioquest) was added to the cultured neurons for 30 min at 37°C to visualize the intracellular region. The cells were washed with Hepes-based ACSF [25 mM Hepes (pH 7.4), 140 mM NaCl, 5 mM KCl, 1.3 mM CaCl2, 2 mM MgCl2, and 33 mM glucose], and 100 nM PFQX1(AF488) in Hepes-based ACSF was added to the dish.
For evaluating the concentration dependency of PFQX1(AF488), the cells were treated with 1 nM PFQX1(AF488). Then, PFQX1(AF488) in Hepes-based ACSF was added stepwise to the dish to a final concentration of 3, 10, 30, 100, 300, and 1000 nM. To quantify the concentration dependency after cLTP, the procedure described above was conducted after cLTP stimulation as described in the section “cLTP and quantification of cell-surface AMPARs.” The average intensity of ROIs set on spines was calculated by ZEN blue software after subtracting background fluorescence. The intensity was fitted with KaleidaGraph to calculate the equilibrium constant value using the following equation: a + (b − a)/(1 + (x/c)^d). The equilibrium constant is regarded as the Kd in this study.

The target in another data set is GluA1 (Mus musculus, UniProt P23818). Nature of the data set: Concentration-dependent binding of PFQX1(AF488), confocal live imaging of HEK293T cells expressing GluA1. To be noted: n = 3, mean ± s.e.m., read-out: Kd / Affinity of PFQX1(AF488) to GluA1. Here is the method:
(§1) HEK293T cells were cotransfected with plasmids for AMPAR [5′UTR-GluA1^flip(R)-3′UTR, GluA2^flip(Q)-3′UTR, GluA3^flip(Q) (Y454A/R461G), and GluA4^flip(Q)], kainate receptor [GluK2(Q)], auxiliary subunits, or the control vector and transfection marker (EFGP-F or mCherry-F). Fluorophore-ligand conjugates were diluted in Hepes-buffered saline (HBS) buffer [20 mM Hepes (pH 7.4), 107 mM NaCl, 6 mM KCl, 1.2 mM MgSO4, 2 mM CaCl2, and 11.5 mM glucose] and added to the cells. Confocal live imaging was performed with LSM900 (Carl Zeiss) equipped with a 63×, numerical aperture (NA) = 1.4 oil-immersion objective. Fluorescence images were acquired by excitation at 405, 488, 561, or 640 nm derived from diode lasers.
For evaluating the concentration dependency of fluorophore-ligand conjugates, 0.1 nM probe in HBS was added to the dish. Then, probes in HBS were added stepwise to the dish to a final concentration of 0.3, 1, 3, 10, 30, 100, 300, 1000, and 3000 nM. Cell surface fluorescence intensity was quantified from the line scans of transfection marker positive cells and calculated with subtraction of background by ZEN blue software (Carl Zeiss). The membrane intensity was fitted with KaleidaGraph (Synergy software) to calculate the equilibrium constant value using the following equation: a + (b − a)/(1 + (x/c)^d). The equilibrium constant is regarded as the Kd in this study.

Another data set has as its target T1, GluK2(Q) (Rattus norvegicus, UniProt P42260).
T1 construct: expressed in transfected cells; host or cells: HEK293T
Nature of the data set: Confocal live imaging of HEK293T cells expressing GluK2(Q) treated with PFQX1(AF488). The format is binding. The note with it: even at high concentration (300 nM). Here is the method:
as §1
Anti-HA mCherry-F Merge1.0
Fig. S8. Sub-micromolar concentrations of PFQX1(AF488) fail to visualize cell surface kainate receptors in HEK293T cells. (A) HA-tag staining of GluK2(Q).
GluK2(Q) expressing cells were treated with anti-HA antibody (Alexa Fluor 647 conjugate) for 15 min. Scale bar, 10 µm. (B) Fluorescence Ca2+ assay to analyze the inhibition of 100 µM kainic acid-induced response by PFQX-amine. HEK293T cells were transfected with GluK2(Q). The intensity was normalized to that at 0.1 µM PFQX-amine (n = 3). (C) Representative results of confocal live cell imaging of HEK293T cells expressing GluK2(Q) are shown. mCherry-F was used as a transfection marker. […]

T1 sequence (P42260 32-908): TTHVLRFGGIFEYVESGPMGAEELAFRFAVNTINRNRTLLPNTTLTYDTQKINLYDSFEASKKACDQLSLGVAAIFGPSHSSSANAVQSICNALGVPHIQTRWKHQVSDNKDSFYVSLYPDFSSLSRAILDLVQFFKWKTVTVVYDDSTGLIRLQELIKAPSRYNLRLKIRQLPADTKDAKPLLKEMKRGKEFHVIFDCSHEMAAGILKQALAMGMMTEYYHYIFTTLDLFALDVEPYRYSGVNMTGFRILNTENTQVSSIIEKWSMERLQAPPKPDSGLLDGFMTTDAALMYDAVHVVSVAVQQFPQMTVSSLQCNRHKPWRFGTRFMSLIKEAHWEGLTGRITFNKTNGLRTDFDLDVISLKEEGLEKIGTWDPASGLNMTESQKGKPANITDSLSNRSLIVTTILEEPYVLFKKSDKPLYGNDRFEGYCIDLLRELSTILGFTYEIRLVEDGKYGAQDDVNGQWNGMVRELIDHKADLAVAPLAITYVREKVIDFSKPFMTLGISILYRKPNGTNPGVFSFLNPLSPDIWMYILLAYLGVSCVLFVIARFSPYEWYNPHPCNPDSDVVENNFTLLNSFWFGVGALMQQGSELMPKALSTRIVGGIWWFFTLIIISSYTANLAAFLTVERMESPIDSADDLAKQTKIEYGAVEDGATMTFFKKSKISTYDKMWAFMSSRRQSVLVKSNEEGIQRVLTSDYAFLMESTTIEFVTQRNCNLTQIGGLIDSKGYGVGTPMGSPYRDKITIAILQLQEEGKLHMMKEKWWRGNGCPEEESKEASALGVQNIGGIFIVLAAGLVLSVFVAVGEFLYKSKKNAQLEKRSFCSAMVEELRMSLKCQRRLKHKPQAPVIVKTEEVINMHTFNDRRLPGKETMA
GluA1, sequence (P23818 19-907): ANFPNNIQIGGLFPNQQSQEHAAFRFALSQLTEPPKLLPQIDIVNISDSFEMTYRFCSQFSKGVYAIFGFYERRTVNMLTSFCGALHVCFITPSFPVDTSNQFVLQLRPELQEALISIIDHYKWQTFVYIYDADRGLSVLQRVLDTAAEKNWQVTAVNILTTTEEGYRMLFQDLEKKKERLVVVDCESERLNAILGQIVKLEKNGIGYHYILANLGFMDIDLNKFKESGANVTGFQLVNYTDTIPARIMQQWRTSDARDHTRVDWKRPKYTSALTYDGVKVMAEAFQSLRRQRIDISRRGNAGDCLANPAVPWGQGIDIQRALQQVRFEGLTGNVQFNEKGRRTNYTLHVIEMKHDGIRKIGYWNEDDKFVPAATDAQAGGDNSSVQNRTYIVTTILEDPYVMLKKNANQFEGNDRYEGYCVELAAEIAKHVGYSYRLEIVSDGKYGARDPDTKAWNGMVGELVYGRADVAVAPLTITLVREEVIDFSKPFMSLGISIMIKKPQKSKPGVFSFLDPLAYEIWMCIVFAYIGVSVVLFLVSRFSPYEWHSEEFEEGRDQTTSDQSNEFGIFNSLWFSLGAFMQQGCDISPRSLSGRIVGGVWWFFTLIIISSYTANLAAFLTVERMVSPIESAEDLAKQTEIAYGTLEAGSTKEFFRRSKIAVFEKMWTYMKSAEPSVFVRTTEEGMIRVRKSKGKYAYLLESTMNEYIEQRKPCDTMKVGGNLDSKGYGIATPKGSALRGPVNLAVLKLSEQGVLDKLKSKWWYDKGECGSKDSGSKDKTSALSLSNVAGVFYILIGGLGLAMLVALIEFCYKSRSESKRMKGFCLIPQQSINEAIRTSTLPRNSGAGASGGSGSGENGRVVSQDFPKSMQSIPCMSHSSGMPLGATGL

Turning to `N=c1ccc2c(-c3ccc(C(=O)NCc4ccn(-c5cc6c(cc5C(F)(F)F)[nH]c(=O)c(=O)n6CC(=O)O)c4)cc3C(=O)O)c3ccc(N)c(S(=O)(=O)O)c3oc-2c1S(=O)(=O)O` [PFQX1(AF488)], the “pH dependency of the fluorescence intensity” value in data set [1] is recorded as “relatively unaffected at pH 5 to 10; also recorded: pH-independent manner in the pH 5 to 10 range”. Further, in the data set on native AMPARs (10 nM probe, from Fig. 4C), the “fraction of AMPARs bound / suppressed by the probe” value is recorded as “less than 10%”. The Kd on native AMPARs (cultured hippocampal neurons after cLTP stimulation, read-out: Kd value after cLTP) came to 72.4 ± 17.4 nM; on native AMPARs (primary cultured hippocampal neurons, spine fluorescence, read-out: Kd / Affinity to native AMPARs), 97.5 ± 9.9 nM; on GluA1, 78.7 ± 15.4 nM. Also, the “visualization of GluK2” value on GluK2(Q) is “failed to visualize GluK2”.
